In ChEMBL document CHEMBL1155301, “Optimization of the aminopyridopyrazinones class of PDE5 inhibitors: discovery of 3-[(trans-4-hydroxycyclohexyl)amino]-7-(6-methoxypyridin-3-yl)-1-(2-propoxyethyl)pyrido[3,4-b]pyrazin-2(1H)-one” (Bioorg Med Chem Lett, 2009):
Values joined by “and” are separate entries in the source; they are usually repeats but may differ in a detail not shown here. Equal entries are not always repeated. Active and inactive are the calls of the source. The calls are words filed in the database; no cut-off is given here.

Assays:
[1] = target: Rod cGMP-specific 3',5'-cyclic phosphodiesterase subunit alpha (Homo sapiens, UniProt P16499); assay: Inhibition of PDE6
Chain of Rod cGMP-specific 3',5'-cyclic phosphodiesterase subunit alpha (P16499 whole entry): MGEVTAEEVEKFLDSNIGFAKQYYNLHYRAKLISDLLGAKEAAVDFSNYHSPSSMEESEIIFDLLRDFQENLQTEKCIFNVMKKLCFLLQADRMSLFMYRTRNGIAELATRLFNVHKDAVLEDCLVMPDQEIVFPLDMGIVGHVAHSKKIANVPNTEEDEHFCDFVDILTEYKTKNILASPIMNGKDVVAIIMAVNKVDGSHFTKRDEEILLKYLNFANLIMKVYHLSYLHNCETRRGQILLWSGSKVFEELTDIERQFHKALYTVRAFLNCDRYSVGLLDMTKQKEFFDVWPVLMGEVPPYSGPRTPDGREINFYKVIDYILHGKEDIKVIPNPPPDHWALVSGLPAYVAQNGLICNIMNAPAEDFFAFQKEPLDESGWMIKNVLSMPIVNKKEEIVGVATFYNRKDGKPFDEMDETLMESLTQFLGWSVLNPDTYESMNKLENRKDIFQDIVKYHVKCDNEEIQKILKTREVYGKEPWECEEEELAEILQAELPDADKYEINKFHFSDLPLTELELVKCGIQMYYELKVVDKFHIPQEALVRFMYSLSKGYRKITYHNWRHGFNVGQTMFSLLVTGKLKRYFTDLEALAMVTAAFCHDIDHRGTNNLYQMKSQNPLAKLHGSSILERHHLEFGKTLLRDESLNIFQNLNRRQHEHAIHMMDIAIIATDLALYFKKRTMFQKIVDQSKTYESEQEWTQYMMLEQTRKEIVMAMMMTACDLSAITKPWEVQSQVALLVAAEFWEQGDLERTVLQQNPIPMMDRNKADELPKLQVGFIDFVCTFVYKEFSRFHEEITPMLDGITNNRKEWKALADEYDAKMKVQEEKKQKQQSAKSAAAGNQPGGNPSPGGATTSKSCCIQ

[2] = target: cGMP-specific 3',5'-cyclic phosphodiesterase (Homo sapiens, UniProt O76074); assay: Inhibition of PDE5
Rattus norvegicus [3] = assay: Antihypertensive activity against telemeterized rat at 10 mg/kg, po; type: functional, organism-based; design: dose 10 mg/kg
[4] = Clearance in rat at 2 mg/kg, po and 2 mg/kg, iv; type: ADME, organism-based; conditions: in vivo
[5] = Oral bioavailability in rat at 2 mg/kg; type: ADME, organism-based; conditions: in vivo
[6] = Half life in rat at 2 mg/kg, po and 2 mg/kg, iv; type: ADME, organism-based; conditions: in vivo
[7] = Clearance in dog at 2 mg/kg, po and 2 mg/kg, iv; type: ADME, organism-based, Canis lupus familiaris; conditions: in vivo
[8] = Volume of distribution in dog at 2 mg/kg, iv and 2 mg/kg, po; type: ADME, organism-based, Canis lupus familiaris; conditions: in vivo
[9] = Half life in dog at 2 mg/kg, po and 2 mg/kg, iv; type: ADME, organism-based, Canis lupus familiaris; conditions: in vivo
[10] = Oral bioavailability in dog at 2 mg/kg; type: ADME, organism-based, Canis lupus familiaris; conditions: in vivo
[11] = Volume of distribution in rat at 2 mg/kg, iv and 2 mg/kg, po; type: ADME, organism-based; conditions: in vivo
[12] = Selectivity ratio of IC50 for PDE5 to IC50 for PDE6
Rattus norvegicus [13] = organism: Rattus norvegicus; assay: Unbound volume of distribution in rat; type: ADME, organism-based; conditions: in vivo
Rattus norvegicus [14] = organism: Rattus norvegicus; assay: Unbound clearance in rat; type: ADME, organism-based; conditions: in vivo
[15] = Half life in rat; type: ADME, organism-based; conditions: in vivo

Row | Structure (SMILES) | IC50 [1] | IC50 [2] | clearance [4] | also measured
1 | CCCOCCn1c(=O)c(NCc2cnccn2)nc2ncc(-c3ccc(OC)nc3)cc21 | 23.6 nM | 0.28 nM |  | Activity (Rattus norvegicus [3]): Active
2 | CCCOCCn1c(=O)c(NCC(=O)O)nc2ncc(-c3ccc(OC)nc3)cc21 | 576 nM | 2.95 nM |  | 
3 | CCCOCCn1c(=O)c(NCc2ccccn2)nc2ncc(-c3ccc(OC)nc3)cc21 | 34.5 nM | 0.36 nM |  | 
4 | CCCOCCn1c(=O)c(NCC2CCOCC2)nc2ncc(-c3ccc(OC)nc3)cc21 | 31.4 nM | 0.14 nM | 30 mL/min/kg | bioavailability [5]: 15%; Activity (Rattus norvegicus [3]): Active
5 | CCCOCCn1c(=O)c(NC[C@@H](C)O)nc2ncc(-c3ccc(OC)nc3)cc21 | 49.7 nM | 0.54 nM |  | 
6 | CCCOCCn1c(=O)c(NCC(=O)NC)nc2ncc(-c3ccc(OC)nc3)cc21 | 115 nM | 0.43 nM | 19.5 mL/min/kg | half-life [6]: 0.8 h; clearance [7]: 8.8 mL/min/kg; Vd [8]: 1.3 L/kg; bioavailability [5]: 39%; half-life [9]: 2.4 h; bioavailability [10]: 52%; Vd [11]: 1 L/kg
7 | CCCOCCn1c(=O)c(NCC(=O)N2CCNCC2)nc2cnc(-c3ccc(OC)nc3)cc21 | 100 nM | 1.65 nM |  | 
8 | CCCOCCn1c(=O)c(N[C@H](CC)CO)nc2cnc(-c3ccc(OC)nc3)cc21 | 23.2 nM | 0.25 nM | 22.6 mL/min/kg | half-life [6]: 1.8 h; bioavailability [5]: 61%; Vd [11]: 2.4 L/kg
9 | CCCOCCn1c(=O)c(NCc2cnccn2)nc2cnc(-c3ccc(OC)nc3)cc21 | 4.7 nM | 0.06 nM |  | 
10 | CCCOCCn1c(=O)c(NCCOCC)nc2ncc(-c3ccc(OC)nc3)cc21 | 57.4 nM | 0.17 nM |  | Activity (Rattus norvegicus [3]): inactive
11 | CCCOCCn1c(=O)c(NCC(=O)N2CCN(CC)CC2)nc2ncc(-c3ccc(OC)nc3)cc21 | 98.9 nM | 0.38 nM |  | 
12 | CCCOCCn1c(=O)c(NCC(=O)N2CCN(CC)CC2)nc2cnc(-c3ccc(OC)nc3)cc21 | 55.9 nM | 0.13 nM | 28 mL/min/kg | half-life [6]: 1.4 h; clearance [7]: 37 mL/min/kg; Vd [8]: 8 L/kg; bioavailability [5]: 61%; half-life [9]: 3.5 h; bioavailability [10]: 15%; Vd [11]: 2.3 L/kg
13 | CCCOCCn1c(=O)c(NCC(=O)N2CCC(O)CC2)nc2cnc(-c3ccc(OC)nc3)cc21 | 24.6 nM | 0.13 nM | 10.5 mL/min/kg | half-life [6]: 1.7 h; bioavailability [5]: 52%; Vd [11]: 1 L/kg
14 | CCCOCCn1c(=O)c(NCCO)nc2ncc(-c3ccc(OC)nc3)cc21 | 114 nM | 1.17 nM |  | Ratio IC50 [12]: 97; Activity (Rattus norvegicus [3]): Active
15 | CCCOCCn1c(=O)c(NCC(=O)N2CCN(C)CC2)nc2cnc(-c3ccc(OC)nc3)cc21 | 14.7 nM | 0.07 nM |  | 
16 | CCCOCCn1c(=O)c(N[C@H]2CC[C@H](O)CC2)nc2ncc(-c3ccc(OC)nc3)cc21 | 15.3 nM | 0.32 nM |  | 
17 | CCCOCCn1c(=O)c(N[C@@H](C)CO)nc2ncc(-c3ccc(OC)nc3)cc21 | 68.2 nM | 0.55 nM |  | 
18 | CCCOCCn1c(=O)c(NCCN(C)C)nc2ncc(-c3ccc(OC)nc3)cc21 | 1590 nM | 4 nM |  | 
19 | CCCOCCn1c(=O)c(NCC(=O)N2CCN(C)CC2)nc2ncc(-c3ccc(OC)nc3)cc21 | 80.2 nM | 0.32 nM |  | 
20 | CCCOCCn1c(=O)c(NCCCO)nc2ncc(-c3ccc(OC)nc3)cc21 | 124 nM | 0.71 nM |  | 
21 | CCCOCCn1c(=O)c(NCCNCCO)nc2cnc(-c3ccc(OC)nc3)cc21 | 272 nM | 1.1 nM | 170 mL/min/kg | bioavailability [5]: 53%; Activity (Rattus norvegicus [3]): Active
22 | CCCOCCn1c(=O)c(NCC2CCCO2)nc2cnc(-c3ccc(OC)nc3)cc21 (racemic) | 8.6 nM | 0.05 nM | 52 mL/min/kg | Activity (Rattus norvegicus [3]): Active
23 | CCCOCCn1c(=O)c(NCCN)nc2ncc(-c3ccc(OC)nc3)cc21 | > 2000 nM | 16.3 nM |  | 
24 | CCCOCCn1c(=O)c(NCCN2CCOCC2)nc2ncc(-c3ccc(OC)nc3)cc21 | 61.8 nM |  |  | half-life [15]: 1.8 h
25 | CCCOCCn1c(=O)c(N[C@H](C)CO)nc2ncc(-c3ccc(OC)nc3)cc21 | 63.2 nM | 0.88 nM |  | 
26 | CCCOCCn1c(=O)c(NC[C@H](C)O)nc2ncc(-c3ccc(OC)nc3)cc21 | 51.8 nM | 0.34 nM |  | 
27 | CCCOCCn1c(=O)c(NCC(=O)N(C)C)nc2ncc(-c3ccc(OC)nc3)cc21 | 398 nM | 2.59 nM | 33 mL/min/kg | half-life [6]: 0.6 h; clearance [7]: 9.4 mL/min/kg; Vd [8]: 1.2 L/kg; bioavailability [5]: 46%; half-life [9]: 2.1 h; bioavailability [10]: 32%; Activity (Rattus norvegicus [3]): Active; Vd [11]: 1.1 L/kg
28 | CCCOCCn1c(=O)c(NCC(=O)N2CCOCC2)nc2ncc(-c3ccc(OC)nc3)cc21 | 114 nM | 1.17 nM | 18 mL/min/kg | half-life [6]: 0.8 h; clearance [7]: 16.7 mL/min/kg; Vd [8]: 0.9 L/kg; bioavailability [5]: 51%; half-life [9]: 0.9 h; bioavailability [10]: 32%; Vd [11]: 0.8 L/kg
29 | CCCOCCn1c(=O)c(NCC(=O)N2CCOCC2)nc2cnc(-c3ccc(OC)nc3)cc21 | 16.1 nM | 0.15 nM | 9.1 mL/min/kg | half-life [6]: 0.8 h; clearance [7]: 5.3 mL/min/kg; Vd [8]: 1.2 L/kg; bioavailability [5]: 35%; half-life [9]: 3.9 h; bioavailability [10]: 32%; Vd [11]: 0.5 L/kg
30 | CCCOCCn1c(=O)c(NCc2ccccn2)nc2cnc(-c3ccc(OC)nc3)cc21 | 10.8 nM | 0.04 nM | 21.9 mL/min/kg | bioavailability [5]: 54%; Activity (Rattus norvegicus [3]): Active

Further lines, with some results ahead:

Row | IC50 [1] | IC50 [2] | clearance [4] | Structure (SMILES) | also measured
31 | 15.1 nM | 0.1 nM |  | CCCOCCn1c(=O)c(NC[C@@H](C)O)nc2cnc(-c3ccc(OC)nc3)cc21 | 
32 | 39.5 nM | 0.08 nM |  | CCCOCCn1c(=O)c(NCC(=O)N2CCCC2)nc2cnc(-c3ccc(OC)nc3)cc21 | 
33 | 86.6 nM | 0.68 nM | 27 mL/min/kg | CCCOCCn1c(=O)c(NCC(=O)N(C)C)nc2cnc(-c3ccc(OC)nc3)cc21 | half-life [6]: 0.6 h; clearance [7]: 1.8 mL/min/kg; Vd [8]: 0.4 L/kg; bioavailability [5]: 52%; half-life [9]: 4.3 h; Ratio IC50 [12]: 97; bioavailability [10]: 30%; Activity (Rattus norvegicus [3]): Active; Vd [11]: 0.9 L/kg
34 | 1210 nM | 0.25 nM |  | CCCOCCn1c(=O)c(NCCN)nc2cnc(-c3ccc(OC)nc3)cc21 | 
35 | 13.8 nM | 0.26 nM | 28 mL/min/kg | CCCOCCn1c(=O)c(NCCCO)nc2cnc(-c3ccc(OC)nc3)cc21 | half-life [6]: 0.7 h; Vdu (Rattus norvegicus [13]): 31 L/kg; CL free (Rattus norvegicus [14]): 730 mL/min/kg; bioavailability [5]: 52%; Ratio IC50 [12]: 30; Vd [11]: 1.2 L/kg
36 | 398 nM | 2.59 nM |  | CCCOCCn1c(=O)c(NCC(N)=O)nc2ncc(-c3ccc(OC)nc3)cc21 | 
37 | 261 nM | 0.78 nM |  | CCCOCCn1c(=O)c(NCCN(C)C)nc2cnc(-c3ccc(OC)nc3)cc21 | 
38 | 15.2 nM | 0.07 nM |  | CCCOCCn1c(=O)c(NCC(=O)NC)nc2cnc(-c3ccc(OC)nc3)cc21 | 
39 | 26.3 nM | 0.9 nM |  | CCCOCCn1c(=O)c(NCCO)nc2cnc(-c3ccc(OC)nc3)cc21 | Ratio IC50 [12]: 30; Activity (Rattus norvegicus [3]): inactive
40 | 45.5 nM | 1.05 nM |  | CCCOCCn1c(=O)c(NCC(=O)O)nc2cnc(-c3ccc(OC)nc3)cc21 | Ratio IC50 [12]: 43 and 30; Activity (Rattus norvegicus [3]): inactive
41 | 86.6 nM | 0.68 nM |  | CCCOCCn1c(=O)c(NCC(N)=O)nc2cnc(-c3ccc(OC)nc3)cc21 | 
42 | 17.7 nM | 0.14 nM |  | CCCOCCn1c(=O)c(N[C@H](C)CO)nc2cnc(-c3ccc(OC)nc3)cc21 | 
43 | 15.3 nM | 0.09 nM | 13.8 mL/min/kg | CCCOCCn1c(=O)c(NC[C@H](C)O)nc2cnc(-c3ccc(OC)nc3)cc21 | half-life [6]: 1.3 h; clearance [7]: 17.8 mL/min/kg; Vd [8]: 4.3 L/kg; Vdu (Rattus norvegicus [13]): 35 L/kg; CL free (Rattus norvegicus [14]): 500 mL/min/kg; bioavailability [5]: 42%; half-life [9]: 4.1 h; bioavailability [10]: 38%; Vd [11]: 1 L/kg
44 | 9.3 nM | 0.11 nM |  | CCCOCCn1c(=O)c(NCCOCC)nc2cnc(-c3ccc(OC)nc3)cc21 | 
45 | 17.9 nM | 0.24 nM |  | CCCOCCn1c(=O)c(N[C@@H](C)CO)nc2cnc(-c3ccc(OC)nc3)cc21 | 
